# Data taken from ChEMBL document CHEMBL1133055, “6-Acylamino-2-[(alkylsulfonyl)oxy]-1H-isoindole-1,3-dione mechanism-based inhibitors of human leukocyte elastase” (Bioorg Med Chem Lett, 2000).
# What was measured:
# [1] = target: T1, Neutrophil elastase (Homo sapiens) (UniProt P08246); test: Inhibition of human leukocyte elastase; set-up: unit not given here
# T1 sequence (whole entry): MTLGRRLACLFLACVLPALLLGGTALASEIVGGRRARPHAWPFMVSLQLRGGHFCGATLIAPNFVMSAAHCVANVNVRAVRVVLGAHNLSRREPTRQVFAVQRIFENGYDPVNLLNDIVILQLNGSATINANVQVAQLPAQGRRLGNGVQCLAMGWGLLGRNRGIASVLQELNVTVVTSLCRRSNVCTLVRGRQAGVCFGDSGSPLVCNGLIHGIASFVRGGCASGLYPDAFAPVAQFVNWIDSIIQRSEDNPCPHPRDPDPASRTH
# Homo sapiens [2] = species on record: Homo sapiens; test: In vitro inhibition of Serine protease chymotrypsin; set-up: unit not given here
# Homo sapiens [3] = species on record: Homo sapiens; test: Ratio of kobs/[l] for human leukocyte elastase and kobs/[l] for chymotrypsin
Structure (SMILES),k obs / 1 [1],k obs / 1 (Homo sapiens [2]),Ratio (Homo sapiens [3])
COC(=O)C(=O)Nc1ccc2c(c1)C(=O)N(OS(C)(=O)=O)C2=O,30000,5400,5.6
CS(=O)(=O)ON1C(=O)c2ccc(NC(=O)CCc3ccccc3)cc2C1=O,9700,4800,2
CS(=O)(=O)ON1C(=O)c2ccc(NC(=O)c3ccccc3)cc2C1=O,25000,3600,6.9
CCS(=O)(=O)ON1C(=O)c2ccc(NC(=O)CCC(=O)OC)cc2C1=O,25000,9600,2.6
CS(=O)(=O)ON1C(=O)c2ccc(N)cc2C1=O,110000,12000,9.2
CS(=O)(=O)ON1C(=O)c2ccc(NC(=O)c3cccc4ccccc34)cc2C1=O,25000,3300,7.6
CS(=O)(=O)ON1C(=O)c2ccc(NC(=O)/C=C/c3ccccc3)cc2C1=O,20000,1600,13
COC(=O)CCCC(=O)Nc1ccc2c(c1)C(=O)N(OS(C)(=O)=O)C2=O,57000,6600,8.6
CCS(=O)(=O)ON1C(=O)c2ccc(N)cc2C1=O,60000,13000,4.6
CCS(=O)(=O)ON1C(=O)c2ccc(NC(=O)CCCC(=O)OC)cc2C1=O,220000,14000,16
Cc1ccc(S(=O)(=O)N[C@@H](Cc2ccccc2)C(=O)Nc2ccc3c(c2)C(=O)N(OS(C)(=O)=O)C3=O)cc1,160000,11000,15
CCS(=O)(=O)ON1C(=O)c2ccc(NC(=O)C(=O)OC)cc2C1=O,56000,5300,11
